Experimental findings from PMC7265341, “Quantifying CDK inhibitor selectivity in live cells” (Nature Communications, 2020) are described below.

This assay concerns the target CDK7 (Homo sapiens, UniProt P50613). Kind of assay: Real-time analysis of engagement (kobs, IC50 vs time) in live cells, CDK7. It is filed as binding. The method, then:
Cells were pre-equilibrated with energy transfer probe for 40 min prior to addition of […]
intervals at 25 °C (temperature reduced to avoid evaporation of cell culture medium). To quantify […]
vs time. Apparent association rate was also plotted as k obs vs [RGB286638], where kobs was determined using the one phase association equation (Supplementary Equation 2) in graphpad prism.
Y=Y0 + (Plateau-Y0)*(1-e-K*X) (2) where Y = mBRET ratio, X = time, and K = the observed rate constant ( kobs). […]
CDK7 (left) and CDK6 (right) to generate kobs. Kinetic traces were collected in a single biological experiment (n = 1), where individual data points represent the mean ± S.D of technical triplicates (n = 3).
(B) kobs values (n = 1) were generated from panel A by fitting Supplementary Equation 2, and were then […]
collected at each timepoint represent technical singlicates (n = 1 ). Source data are provided as a Source

The mark [1] stands for this setting: LOG10([THZ1]) (LOG10(µM)) 0.346787.
The mark [2] stands for this setting: LOG10([THZ1]) (LOG10(µM)) 0.823909.
Setting [3] is: LOG10([THZ1]) (LOG10(µM)) 1.30103, Replicates 1 and 2.
Setting [4] is: LOG10([THZ1]) (LOG10(µM)) -0.60746.
Setting [5] is: LOG10([THZ1]) (LOG10(µM)) -1.08458.
Setting [6] is: LOG10([THZ1]) (LOG10(µM)) -1.5617.
The mark [7] stands for this setting: LOG10([THZ1]) (LOG10(µM)) -2.03882.
Setting [8] is: LOG10([THZ1]) (LOG10(µM)) -2.51594.
Setting [9] is: LOG10([THZ1]) (LOG10(µM)) -2.99306.
The mark [10] stands for this setting: LOG10([THZ1]) (LOG10(µM)) -3.47018.
Where [11] appears, read: LOG10([THZ1]) (LOG10(µM)) -3.9473.

Several values for one entry are separate records, joined by “and”; a condition that tells them apart may be missing. Equal values may be shown once.

Chain of CDK7 (P50613 whole entry): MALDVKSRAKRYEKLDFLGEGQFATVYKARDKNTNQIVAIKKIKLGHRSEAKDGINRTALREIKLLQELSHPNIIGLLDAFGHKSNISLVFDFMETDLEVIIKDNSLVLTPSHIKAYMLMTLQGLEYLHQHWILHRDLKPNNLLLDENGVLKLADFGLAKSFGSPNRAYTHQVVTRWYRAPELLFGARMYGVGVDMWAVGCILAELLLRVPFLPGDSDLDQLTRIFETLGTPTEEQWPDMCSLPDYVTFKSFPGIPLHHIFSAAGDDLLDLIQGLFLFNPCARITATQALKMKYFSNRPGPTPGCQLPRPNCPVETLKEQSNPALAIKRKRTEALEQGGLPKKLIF

`CN(C)C/C=C/C(=O)Nc1ccc(C(=O)Nc2cccc(Nc3ncc(Cl)c(-c4c[nH]c5ccccc45)n3)c2)cc1` [THZ1]: the “mBRET values, 2h” value under setting [1] was 8.56 mBRET and 5.32 mBRET; the “mBRET values, 2h” value under setting [2] is 7.68 mBRET and 4.86 mBRET; the “mBRET values, 2h” value under setting [3] is 6.67 mBRET and 4.16 mBRET; the “mBRET values, 2h” value under setting [4] was 15 mBRET and 7.79 mBRET; the “mBRET values, 2h” value under setting [5] is 16.83 mBRET and 10.6 mBRET; the “mBRET values, 2h” value under setting [6] was 18.12 mBRET and 11.5 mBRET. In addition, the “mBRET values, 2h” value runs as follows: under setting [7], 20.68 mBRET and 12.8 mBRET; under setting [8], 20.88 mBRET and 13.4 mBRET; under setting [9], 20.48 mBRET and 13.4 mBRET; under setting [10], 19.82 mBRET and 13.5 mBRET; under setting [11], 20.06 mBRET and 13.5 mBRET. Besides, the “mBRET values, 6h” value runs as follows: under setting [1], 7.65 mBRET and 4.87 mBRET; under setting [2], 7.21 mBRET and 4.56 mBRET; under setting [3], 6.77 mBRET and 4.18 mBRET; (LOG10([THZ1]) (LOG10(µM)) -0.13033) 8.08 mBRET and 4.82 mBRET; under setting [4], 8.54 mBRET and 5.25 mBRET; under setting [5], 9.55 mBRET and 5.83 mBRET. In addition, the “mBRET values, 6h” value under setting [6] was 13.84 mBRET and 8.78 mBRET; the “mBRET values, 6h” value under setting [7] is 18.55 mBRET and 12 mBRET; the “mBRET values, 6h” value under setting [8] is 19.6 mBRET and 13.1 mBRET; the “mBRET values, 6h” value under setting [9] was 19.14 mBRET and 12.9 mBRET; the “mBRET values, 6h” value under setting [10] is 18.6 mBRET and 13.6 mBRET; the “mBRET values, 6h” value under setting [11] was 19.78 mBRET and 13.4 mBRET.
